Measurements taken from US9434692B2, “Pyrazole derivatives as modulators of the 5-HT2A serotonin receptor useful for the treatment of disorders related thereto” (Arena Pharmaceuticals, Inc., priority 2006, dated 2016).

Experiments:
[1] = system: normal volunteers; test: Afternoon nap model of insomnia in normal volunteers; assay type: in vivo, human
Excerpt: APD125, a potent and selective 5-HT2A serotonin receptor inverse agonist is a member of the genus disclosed in the European Patent EP1558582. […] Sleep onset latency was not decreased by APD125. In the afternoon nap model, APD125 decreased microarousals, the number of sleep stage shifts, and number of awakenings after sleep onset.

[2] = system: healthy adults; test: Phase 1 trials, waking EEG; assay type: in vivo, human
[3] = molecular target: human 5-HT2A serotonin receptor (Homo sapiens (Human), UniProt P28223); test: [125I]DOI radioligand binding assay; conditions: 0.5 nM [125I]DOI, COS7 membranes, recombinant human 5-HT2A
Experimental: Compounds of the invention were tested for their ability to bind to a 5-HT2A serotonin receptor clone membrane preparation using a radioligand binding assay. Briefly, COS cells were transiently transfected with a pCMV expression vector containing a human 5-HT2A receptor (for the sequence of the receptor see U.S. Pat. No. 6,541,209, SEQ ID NO:24).
COS7 cells transfected with recombinant human 5-HT2A serotonin receptors were cultured for 48 h post transfection, collected, washed with ice-cold phosphate buffered saline, pH 7.4 (PBS), and then centrifuged at 48,000 g for 20 min at 4° C. The cell pellet was then resuspended in wash buffer containing 20 mM HEPES pH 7.4 and 0.1 mM EDTA, homogenized on ice using a Brinkman polytron, and recentrifuged at 48,000 g for 20 min at 4° C. The resultant pellet was then resuspended in 20 mM HEPES, pH 7.4, homogenized on ice, and centrifuged (48,000 g for 20 min at 4° C.). Crude membrane pellets were stored at −80° C. until used for radioligand binding assays.
Radioligand binding assays for human 5-HT2A serotonin receptor was conducted using the 5-HT2 agonist [^125I]DOI as radioligand. To define nonspecific binding, 10 μM DOI was used for all assays. For competitive binding studies, 0.5 nM [^125I]DOI was used and compounds were assayed over a range of 0.01 nM to 10 μM. Assays were conducted in a total volume of 200 μl in 96-well Perkin Elmer GF/C filter plates in assay buffer (50 mM Tris-HCl, pH 7.4, 0.5 mM EDTA, 5 mM MgCl2, and 10 μM pargyline). Assay incubations were performed for 60 min at room temperature and were terminated by rapid filtration under vacuum pressure of the reaction mixture over Whatman GF/C glass fiber filters presoaked in 0.5% PEI using a Brandell cell harvester. Filters were then washed several times with ice-cold wash buffer (50 mM Tris-HCl, pH 7.4). Plates were then dried at room temperature and counted in a Wallac MicroBeta scintillation counter.

[4] = system: DOI-induced hypolocomotion; test: Attenuation of DOI-induced hypolocomotion in rats; assay type: in vivo, Sprague-Dawley rats; conditions: compound 1-10 mg/kg p.o., DOI 1 mg/kg s.c.
Experimental: In this example, compounds of the invention were tested for inverse agonist activity by determining whether these compounds could attenuate DOI-induced hypolocomotion in rats in a novel environment. DOI is a potent 5-HT2A/2C receptor agonist that crosses the blood-brain barrier. The standard protocol used is described briefly below.
Male Sprague-Dawley rats weighing between 200-350 g were used for all tests. Rats were housed three to four per cage.
(R)-DOI HCl (C11H16INO2.HCl) was obtained from Sigma-Aldrich, and was dissolved in 0.9% saline. Compounds of the invention were synthesized at Arena Pharmaceuticals Inc., San Diego, Calif., and were dissolved in 100% PEG400. DOI was injected s.c. in a volume of 1 mL/kg, while compounds of the invention were administered p.o. in a volume of 1 mL/kg.
The “Motor Monitor” (Hamilton-Kinder, Poway, Calif.) was used for all activity measurement. This apparatus recorded rears using infrared photobeams. […]
In determining the effects of compounds of the invention on DOI-induced hypoactivity, animals were first injected with vehicle or the compound of the invention (1-10 mg/kg) in their home cages. […] Ten minutes after DOI administration, animals were placed into the activity apparatus and rearing activity was measured for 10 min.
Results (total rears over 10 minutes) were analyzed by t-test. […]

[5] = system: diabetic rats; conditions: cited from earlier work; for reduction in saphenous sensory conduction velocity: 14.9% reduction in diabetic rats; for correction of sciatic motor conduction deficit: 19.8% deficit in diabetic rats, range over all three drugs; for reduction in sciatic endoneurial blood flow: 44.7% reduction in diabetic rats
[6] = system: pain in rats; conditions: cited from earlier work
[7] = system: diabetic nephropathy; conditions: 24 months of treatment; cited from earlier work
[8] = system: glaucoma patients; conditions: cited from earlier work
[9] = system: lower back pain, leg pain and numbness; conditions: humans, lumbar disc herniation; cited from earlier work
[10] = system: spontaneously hypertensive rats; conditions: cited from earlier work
[11] = system: heatstroke; conditions: in vivo; cited from earlier work
[12] = system: JC virus; conditions: cited from earlier work
[13] = system: DOCA-salt induced hypertension; conditions: rats; cited from earlier work

## COc1ccc(NC(=O)Nc2ccc(F)cc2F)cc1-c1c(Br)cnn1C [APD125]
[1]; human, in vivo
  REM sleep: at the expense of REM sleep
  microarousals: decreased
  number of awakenings after sleep onset: decreased
  number of sleep stage shifts: decreased
  sleep onset latency: not decreased
[1]; primarily during the early part of sleep
  slow wave sleep and associated parameters: increased slow wave sleep and associated parameters in a dose-dependent manner
[2]
  dose of maximal effects on waking EEG: 40 to 80 mg
  effects on waking EEG: vigilance-lowering effects
[2]; waking EEG
  time of peak effects after dosing: 24 h

## Cc1[nH]nc(C(=O)N2CCN(CC(=O)c3ccc(F)cc3)CC2)c1F [Compound 42, 2-[4-(4-Fluoro-5-methyl-1H-pyrazole-3-carbonyl)-piperazin-1-yl]-1-(4-fluoro-phenyl)-ethanone]
[3]
  IC50: 11 nM

## Cn1nc(C(=O)N2CCN(CC(=O)c3ccc(F)cc3)CC2)cc1C(F)(F)F [Compound 35, 1-(4-Fluoro-phenyl)-2-[4-(1-methyl-5-trifluoromethyl-1H-pyrazole-3-carbonyl)-piperazin-1-yl]-ethanone]
[4]
  attenuation of DOI-induced hypolocomotion (total rears over 10 minutes): attenuated DOI-induced hypolocomotion

## Cn1nc(C(=O)N2CCN(CC(=O)c3ccc(F)cc3)CC2)cc1-c1ccco1 [Compound 66, 1-(4-Fluoro-phenyl)-2-[4-(5-furan-2-yl-1-methyl-1H-pyrazole-3-carbonyl)-piperazin-1-yl]-ethanone]
[3]
  IC50: 4.8 nM

## Cn1cc(Cl)c(C(=O)N2CCN(CCc3ccccc3F)CC2)n1 [Compound 24, (4-Chloro-1-methyl-1H-pyrazol-3-yl)-{4-[2-(2-fluoro-phenyl)-ethyl]-piperazin-1-yl}-methanone]
[3]
  IC50: 36 nM

## CCn1cc(Cl)c(C(=O)N2CCN(CC(=O)c3ccc(F)cc3)CC2)n1 [Compound 7, 2-[4-(4-Chloro-1-ethyl-1H-pyrazole-3-carbonyl)-piperazin-1-yl]-1-(4-fluoro-phenyl)-ethanone]
[4]
  attenuation of DOI-induced hypolocomotion (total rears over 10 minutes): attenuated DOI-induced hypolocomotion

## Cc1[nH]nc(C(=O)N2CCN(CC(=O)c3ccc(F)cc3)CC2)c1Br [Compound 52, 2-[4-(4-Bromo-5-methyl-1H-pyrazole-3-carbonyl)-piperazin-1-yl]-1-(4-fluoro-phenyl)-ethanone]
[3]
  IC50: 4.6 nM

## COc1cccc(CCc2ccccc2OCC(CN(C)C)OC(=O)CCC(=O)O)c1 (centres unmarked) [sarpogrelate]
[5]
  reduction in saphenous sensory conduction velocity: completely reversed
  correction of sciatic motor conduction deficit: 82.6-99.7%
  reduction in sciatic endoneurial blood flow: completely reversed
[6]; intraperitoneal administration
  analgesic effect on thermal induced pain: significant analgesic effect
[6]; intrathecal or intraperitoneal administration
  analgesic effect on inflammatory pain: significant analgesic effect
[7]
  urinary albumin excretion level: significantly reduced
[8]
  intra ocular pressure (IOP): significantly lower IOP
[9]
  treatment of lower back pain, leg pain and numbness associated with sciatica: effective treatment

## O=CN1CCC(C(=O)NCCN2CCC(=C3c4ccccc4C=Cc4ccccc43)CC2)CC1 [AT-1015]
[5]
  reduction in saphenous sensory conduction velocity: completely reversed
  correction of sciatic motor conduction deficit: 82.6-99.7%
  reduction in sciatic endoneurial blood flow: completely reversed

## O=C(c1ccc(F)cc1)C1CCN(CCn2c(=O)[nH]c3ccccc3c2=O)CC1 [ketanserin]
[8]
  intra ocular pressure (IOP): significantly lower IOP
[10]
  blood pressure: stabilize blood pressure
[11]
  protection during heatstroke: protect against circulatory shocks, intracranial hypertension, and cerebral ischemia during heatstroke
[12]
  JC virus infection of human glial cells: inhibited JC virus infection of human glial cells

## Cc1nc2sccn2c(=O)c1CCN1CCC(=C(c2ccc(F)cc2)c2ccc(F)cc2)CC1 [ritanserin]
[5]
  reduction in saphenous sensory conduction velocity: completely reversed
  correction of sciatic motor conduction deficit: 82.6-99.7%
  reduction in sciatic endoneurial blood flow: completely reversed
[12]
  JC virus infection of human glial cells: inhibited JC virus infection of human glial cells

## CN1CCN2c3ccccc3Cc3ccccc3C2C1 (centres unmarked) [Mainserin]
[13]
  DOCA-salt induced hypertension: prevent DOCA-salt induced hypertension
